US20060110781A1, “Cholesterol detection reagent” (RIKEN, priority 2002, published 2006)

Tested on: NPC fibroblasts
Assay: Fate of cell surface fPEG-Chol, incorporation into meshwork structure
Conditions: for incorporation of fPEG-Chol into meshwork: inhibitor 5 μg/ml before 1 μM fPEG-Chol

| SMILES | incorporation of fPEG-Chol into meshwork | internalization of rhodamine dextran (5 μg/ml, 30 minutes, 1 mg/ml rhodamine dextran) |
| --- | --- | --- |
| C[C@H]1CCC/C=C/[C@@H]2C[C@H](O)C[C@H]2[C@H](O)/C=C/C(=O)O1 [Brefeldin A] | did not significantly affect | – |
| C=C1[C@@H](C)[C@H]2[C@H](Cc3ccccc3)NC(=O)[C@]23OC(=O)/C=C/[C@H](O)CCC[C@@H](C)C/C=C/[C@H]3[C@@H]1O [cytochalasin B] | meshwork structure was disappeared | did not affect |
| COC(=O)Nc1nc2ccc(C(=O)c3cccs3)cc2[nH]1 [nocodazole] | did not significantly affect | – |
